Counter-ions that a name gives are not always drawn. Like-named read-outs stand apart in the source and are kept apart here.
Biological target: TPK enzyme (Homo sapiens (Human), UniProt Q9H3S4)
Test: TPK enzyme activity test
Format: biochemical
Conditions: for Emax: calculated with the effect of DMSO on TPK enzyme activity as 100%; for EC50: promoting effect on TPK enzyme activity

Chain of TPK enzyme (Q9H3S4 whole entry): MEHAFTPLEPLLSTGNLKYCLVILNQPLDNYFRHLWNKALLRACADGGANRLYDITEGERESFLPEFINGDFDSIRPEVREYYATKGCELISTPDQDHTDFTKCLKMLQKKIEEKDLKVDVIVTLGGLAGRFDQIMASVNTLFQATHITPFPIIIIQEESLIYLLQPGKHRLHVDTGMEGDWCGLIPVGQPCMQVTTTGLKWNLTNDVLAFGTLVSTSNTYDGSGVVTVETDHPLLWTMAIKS

Structure (SMILES) | Emax (read-out: Emax) [%] | EC50 [µM] | Emax [%]
Cc1ccc2[nH]c3c(=O)n(CCC(=O)N4CCN(c5ccccc5)CC4)cnc3c2c1 [Compound 32] | 123 | – | –
Cc1ccc2c(c1)[nH]c1c(=O)n(CCC(=O)N3CCN(c4cccc(Cl)c4Cl)CC3)cnc12 [Compound 13, 3-(3-(4-(2,3-dichlorophenyl)piperazin-1-yl)-3-oxopropyl)-7-methyl-3,5-dihydro-4H-pyrimido[5,4-b]indol-4-one] | 124 | – | –
Cc1ccc2c(c1)[nH]c1c(=O)n(CCC(=O)N3CCN(c4ccc(Cl)c(Cl)c4)CC3)cnc12 [Compound 19, 3-(3-(4-(3,4-dichlorophenyl)piperazin-1-yl)-3-oxopropyl)-7-methyl-3,5-dihydro-4H-pyrimido[5,4-b]indol-4-one] | 145 | 2 | –
COc1ccccc1N1CCN(C(=O)CCn2cnc3c([nH]c4ccc(C)cc43)c2=O)CC1 [Compound 47] | 135 | – | –
Cc1ccc2[nH]c3c(=O)n(CCC(=O)NCCNc4cccc(C(F)(F)F)c4)cnc3c2c1 [Compound 89, 3-(8-methyl-4-oxo-4,5-dihydro-3H-pyrimido[5,4-b]indol-3-yl)-N-(2-((3-(trifluoromethyl)phenyl)amino)ethyl)propanamide] | 132 | – | –
Cc1ccc2[nH]c3c(=O)n(CCCN4CCN(c5cccc(C(F)(F)F)c5)CC4)cnc3c2c1 [Compound 49, 8-methyl-3-(3-(4-(3-(trifluoromethyl)phenyl)piperazin-1-yl)propyl)-3,5-dihydro-4H-pyrimido[5,4-b]indol-4-one] | 136 | – | –
Cc1ccc(N2CCN(C(=O)CCn3cnc4c([nH]c5ccc(C)cc54)c3=O)CC2)c(C)c1 [Compound 31] | 151 | 1.21 | –
CC(=O)c1ccc(N2CCN(C(=O)CCn3cnc4c([nH]c5ccc(C)cc54)c3=O)CC2)cc1 [Compound 35] | 126 | – | –
Cc1ccc2c(c1)[nH]c1c(=O)n(CCC(=O)N3CCN(c4cc(Cl)ccc4Cl)CC3)cnc12 [Compound 14, 3-(3-(4-(2,5-dichlorophenyl)piperazin-1-yl)-3-oxopropyl)-7-methyl-3,5-dihydro-4H-pyrimido[5,4-b]indol-4-one] | 152 | 2.44 | –
Cc1ccc2[nH]c3c(=O)n(CCC(=O)N4CCN(c5cccc(N)c5)CC4)cnc3c2c1 [Compound 26, 3-(3-(4-(3-aminophenyl)piperazin-1-yl)-3-oxopropyl)-8-methyl-3,5-dihydro-4H-pyrimido[5,4-b]indol-4-one] | 166 | 2.62 | –
Cc1ccc2c(c1)[nH]c1c(=O)n(CCC(=O)N3CCN(c4ccc(Cl)cc4Cl)CC3)cnc12 [Compound 3, 3-(3-(4-(2,4-dichlorophenyl)piperazin-1-yl)-3-oxopropyl)-7-methyl-3,5-dihydro-4H-pyrimido[5,4-b]indol-4-one] | 136 | 1.78 | –
Cc1ccc2[nH]c3c(=O)n(CCC(=O)N4CCN(c5ccc(F)cc5)CC4)cnc3c2c1 [Compound 46] | – | – | 122.50
O=C(CCn1cnc2c([nH]c3ccc(Br)cc32)c1=O)N1CCN(c2cccc(C(F)(F)F)c2)CC1 [Compound 12, 8-bromo-3-(3-oxo-3-(4-(3-(trifluoromethyl)phenyl)piperazin-1-yl)propyl)-3,5-dihydro-4H-pyrimido[5,4-b]indol-4-one] | 205 | – | –
Cc1ccc2[nH]c3c(=O)n(CCC(=O)N4CCN(c5cccc(Cl)c5Cl)CC4)cnc3c2c1 [Compound 1, 3-(3-(4-(2,3-dichlorophenyl)piperazin-1-yl)-3-oxopropyl)-8-methyl-3,5-dihydro-4H-pyrimido[5,4-b]indol-4-one] | 159 | 0.11 | –
Cc1ccc2[nH]c3c(=O)n(CCC(=O)N4CCN(c5ccccc5F)CC4)cnc3c2c1 [Compound 40] | 125 | – | –
O=C1CCc2ccc(OCCCCN3c4ccccc4Sc4ccc(C(F)(F)F)cc43)cc2N1 [Compound 205, 7-(4-(2-(trifluoromethyl)-10H-phenothiazin-10-yl)butoxy)-3,4-dihydroquinolin-2(1H)-one] | – | – | 137.51
Cc1ccc2[nH]c3c(=O)n(CCC(=O)N4CCN(c5ccc(C(F)(F)F)cc5)CC4)cnc3c2c1 [Compound 10, 8-methyl-3-(3-oxo-3-(4-(4-(trifluoromethyl)phenyl)piperazin-1-yl)propyl)-3,5-dihydro-4H-pyrimido[5,4-b]indol-4-one] | 157 | 1.15 | –

Other lines, results leading:

Emax (read-out: Emax) [%] | EC50 [µM] | Emax [%] | Structure (SMILES)
195 | 1.28 | – | Cc1ccc2[nH]c3c(=O)n(CCCN4CCN(c5cccc(Cl)c5Cl)CC4)cnc3c2c1 [Diformate salt of 52, 3-(3-(4-(2,3-dichlorophenyl)piperazin-1-yl)propyl)-8-methyl-3,5-dihydro-4H-pyrimido[5,4-b]indol-4-one]
122 | – | – | Cc1ccc2[nH]c3c(=O)n(CCNC(=O)Cc4cccc(C(F)(F)F)c4)cnc3c2c1 [Compound 72, N-(2-(8-methyl-4-oxo-4,5-dihydro-3H-pyrimido[5,4-b]indol-3-yl)ethyl)-2-(3-(trifluoromethyl)phenyl)acetamide]
137 | 0.572 | – | COc1ccc2[nH]c(=O)c3c(c2c1)CN(CCCN1CCN(c2cccc(Cl)c2Cl)CC1)C3 [Compound 235, 2-(3-(4-(2,3-dichlorophenyl)piperazin-1-yl)propyl)-8-methoxy-1,2,3,5-tetrahydro-4H-pyrrolo[3,4-c]quinolin-4-one]
162 | 1.58 | – | O=C(CCn1cnc2c([nH]c3ccc(C(F)(F)F)cc32)c1=O)N1CCN(Cc2cccc(C(F)(F)F)c2)CC1 [Compound 53, 3-(3-oxo-3-(4-(3-(trifluoromethyl)benzyl)piperazin-1-yl)propyl)-8-(trifluoromethyl)-3,5-dihydro-4H-pyrimido[5,4-b]indol-4-one]
– | 2.38 | 137.60 | Cc1ccc2c(c1)-c1nc(=O)n(CCC(=O)N3CCN(c4cccc(Cl)c4Cl)CC3)cc1CO2 [Compound 214]
146 | 1.16 | – | Cc1ccc2nc3c(=O)n(CCC(=O)N4CCN(c5cccc(C(F)(F)F)c5)CC4)cnc3cc2c1 [Compound 138, 8-methyl-3-(3-oxo-3-(4-(3-(trifluoromethyl)phenyl)piperazin-1-yl)propyl)pyrimido[5,4-b]quinolin-4(3H)-one]
198 | 0.95 | – | COc1ccc2c(c1)N1CCN(c3ccccc3OC)CC1C(C(=O)NCCN1CCCCC1)C2 (stereo not drawn) [Compound 139]
129 | – | – | O=C1CCc2ccc(OCCCCCCN3c4ccccc4Sc4ccc(C(F)(F)F)cc43)cc2N1 [Compound 207, 7-((6-(2-(trifluoromethyl)-10H-phenothiazin-10-yl)hexyl)oxy)-3,4-dihydroquinolin-2(1H)-one]
126 | – | – | COC(=O)c1cccc(CNC(=O)CCn2cnc3c([nH]c4ccc(C)cc43)c2=O)c1 [Compound 83, methyl 3-((3-(8-methyl-4-oxo-4,5-dihydro-3H-pyrimido[5,4-b]indol-3-yl)propanamido)methyl)benzoate]
164 | 1.11 | – | O=C1Cc2ccc(OCCCN3c4ccccc4Sc4ccccc43)cc2N1 [Compound 190, 6-(3-(10H-phenothiazin-10-yl)propoxy)indoline-2-one]
– | 0.93 | – | Cc1ccc2c(c1)-c1ncn(CCC(=O)N3CCC(Cc4ccc(F)cc4)CC3)c(=O)c1CC2 [Compound 225, 3-(3-(4-(4-fluorobenzyl)piperidin-1-yl)-3-oxopropyl)-9-methyl-5,6-dihydrobenzo[h]quinazolin-4(3H)-one]
176 | 2.66 | – | O=C1CCCCN1CCCN1c2ccccc2Sc2ccccc21 [Compound 186, 1-(3-(10H-phenothiazin-10-yl)propyl)piperidin-2-one]
139 | – | – | O=C1CCCCN1CCCN1CCSc2ccc(C(F)(F)F)cc21 [Compound 194, 1-(3-(6-(trifluoromethyl)-2,3-dihydro-4H-benzo[b][1,4]thiazin-4-yl)propyl)piperidin-2-one]
– | 1.33 | 152.22 | Cc1ccc2c(c1)-c1ncn(CCCC(=O)N3CCCC(Cc4ccc(F)cc4)C3)c(=O)c1CC2 (stereo not drawn) [Compound 223, 3-(4-(3-(4-fluorobenzyl)piperidin-1-yl)-4-oxobutyl)-9-methyl-5,6-dihydrobenzo[h]quinazolin-4(3H)-one]
148 | – | – | Cc1ccc2[nH]c3c(=O)n(CC(=O)N4CCN(c5ccc(F)cc5)CC4)cnc3c2c1 [Compound 63]
– | 3.17 | 130.73 | O=C(CCn1cnc2c([nH]c3ccc(F)cc32)c1=O)N1CCN(c2cccc(C(F)(F)F)c2)CC1 [Compound 153, 8-fluoro-3-(3-oxo-3-(4-(3-(trifluoromethyl)phenyl)piperazin-1-yl)propyl)-3,5-dihydro-4H-pyrimido[5,4-b]indol-4-one]
153 | 1.47 | – | Cc1ccc2ncc3c(=O)n(CCCC(=O)N4CCN(c5cccc(Cl)c5Cl)CC4)cnc3c2c1 [Compound 217, 3-(4-(4-(2,3-dichlorophenyl)piperazin-1-yl)-4-oxobutyl)-9-methylpyrimido[5,4-c]quinolin-4(3H)-one]
151 | 2.37 | – | Cc1ccc2[nH]c3c(=O)n(CCC(=O)N4CCN(c5cccc(S(=O)(=O)N6CCCCC6)c5)CC4)cnc3c2c1 [Compound 170, 8-methyl-3-(3-oxo-3-(4-(3-(piperidin-1-ylsulfonyl)phenyl)piperazin-1-yl)propyl)-3,5-dihydro-4H-pyrimido[5,4-b]indol-4-one]
122 | – | – | CC(C)c1ccc(CNC(=O)CCn2cnc3c([nH]c4ccc(F)cc43)c2=O)cc1 [Compound 118]
137 | 2.26 | – | COc1ccc2[nH]c(=O)c3c(ncn3CCCC(=O)N3CCN(c4cccc(Cl)c4Cl)CC3)c2c1 [Compound 231, 3-(4-(4-(2,3-dichlorophenyl)piperazin-1-yl)-4-oxobutyl)-8-methoxy-3,5-dihydro-4H-imidazo[4,5-c]quinolin-4-one]
168 | 0.00294 | – | O=C(CCN1c2ccccc2Sc2ccccc21)NCCN1CCOCC1 [Compound 200]
124 | – | – | Cc1ccc2[nH]c3c(=O)n(CCC(=O)NCc4cccc(S(N)(=O)=O)c4)cnc3c2c1 [Compound 88]

— patent publication US20250388584A1, “TPK AGONIST AND METHOD FOR TREATING NEURODEGENERATIVE DISEASES USING SAME” (SHANGHAI RAISING PHARMACEUTICAL CO., LTD., priority 2022, published 2025)
